In ChEMBL document CHEMBL1143178, “Synthesis and analysis of stabilizing ligands for FKBP-derived destabilizing domains” (Bioorg Med Chem Lett, 2008):

Key:
[1] = Binding affinity to human FKBP F36V/L106P mutant-YFP fusion protein expressed in NIH3T3 cells after 24 hrs; format: cell-based
[2] = Binding affinity to human FKBP F36V mutant

| EC50 [1] | Kd [2] | SMILES |
| --- | --- | --- |
| 1200 nM | 29 nM | CCC(CC)NC(=O)N1CCCC[C@H]1C(=O)O[C@H](CCc1ccc(OC)c(OC)c1)c1cccc(OCCN2CCOCC2)c1 |
| 100 nM | 2.4 nM | CC[C@H](C(=O)N1CCCC[C@H]1C(=O)O[C@H](CCc1ccc(OC)c(OC)c1)c1cccc(OCCN2CCOCC2)c1)c1cc(OC)c(OC)c(OC)c1 |
